The values below come from ChEMBL document CHEMBL1629443 (J Med Chem, 2010).

The source made the active and inactive calls. The rule behind the calls is not given here. Some results are limits rather than exact numbers.

As a reminder, the IC50 is the point on the concentration scale where inhibition reaches its midpoint. By EC50 is commonly meant the concentration giving half of the maximal effect. One may read the Emax as the greatest response seen or fitted, relative to the assay's reference.

For one test, the target named is Insulin receptor (Homo sapiens, UniProt P06213). The test is described as follows: Inhibition of INSR by flash plate based radioactive enzyme assay.
Chain of Insulin receptor (P06213 28-758 limits assumed): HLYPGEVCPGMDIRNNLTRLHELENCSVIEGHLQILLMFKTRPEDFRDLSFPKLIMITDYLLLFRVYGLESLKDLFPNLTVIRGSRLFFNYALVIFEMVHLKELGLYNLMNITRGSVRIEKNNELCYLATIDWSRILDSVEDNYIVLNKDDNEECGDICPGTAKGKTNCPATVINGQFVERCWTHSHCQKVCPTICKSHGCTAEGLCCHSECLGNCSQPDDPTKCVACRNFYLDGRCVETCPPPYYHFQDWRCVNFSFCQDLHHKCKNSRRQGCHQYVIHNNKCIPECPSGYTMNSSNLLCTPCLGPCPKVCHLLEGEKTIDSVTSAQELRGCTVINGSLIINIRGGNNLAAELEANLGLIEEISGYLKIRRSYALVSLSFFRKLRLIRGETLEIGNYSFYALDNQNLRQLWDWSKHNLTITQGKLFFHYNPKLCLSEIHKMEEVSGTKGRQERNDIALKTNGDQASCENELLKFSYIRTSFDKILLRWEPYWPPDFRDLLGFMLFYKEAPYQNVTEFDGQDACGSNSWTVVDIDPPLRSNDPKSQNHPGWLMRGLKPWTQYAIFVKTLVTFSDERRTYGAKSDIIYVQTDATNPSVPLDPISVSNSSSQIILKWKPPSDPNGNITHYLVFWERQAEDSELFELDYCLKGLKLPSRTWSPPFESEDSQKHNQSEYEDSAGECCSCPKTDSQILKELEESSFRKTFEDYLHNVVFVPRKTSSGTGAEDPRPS
Chain of Insulin receptor (P06213 763-1382 limits assumed): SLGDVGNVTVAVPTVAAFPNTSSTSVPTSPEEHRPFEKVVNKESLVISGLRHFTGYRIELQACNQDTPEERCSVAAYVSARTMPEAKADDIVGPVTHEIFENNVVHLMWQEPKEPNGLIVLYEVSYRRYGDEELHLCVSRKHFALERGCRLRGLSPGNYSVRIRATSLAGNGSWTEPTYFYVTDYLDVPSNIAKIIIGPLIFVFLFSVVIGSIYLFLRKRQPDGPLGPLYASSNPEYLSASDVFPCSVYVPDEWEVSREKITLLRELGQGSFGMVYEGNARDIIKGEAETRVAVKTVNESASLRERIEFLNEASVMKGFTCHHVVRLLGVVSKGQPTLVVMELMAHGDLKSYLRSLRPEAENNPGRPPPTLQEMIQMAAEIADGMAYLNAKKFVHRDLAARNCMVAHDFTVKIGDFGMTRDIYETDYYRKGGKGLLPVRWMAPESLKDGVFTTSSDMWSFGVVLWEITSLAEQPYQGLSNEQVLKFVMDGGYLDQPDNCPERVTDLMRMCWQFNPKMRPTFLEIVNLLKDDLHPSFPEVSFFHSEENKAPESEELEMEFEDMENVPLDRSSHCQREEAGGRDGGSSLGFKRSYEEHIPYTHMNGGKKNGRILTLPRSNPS
A short description of test [1]: Inhibition of HDAC assessed as histone H3K'9+14 acetylation levels by cell based histone H3 hyperacetylation assay.
The target of test [2] is Cyclin-dependent kinase 2 (Homo sapiens, UniProt P24941). The test is described as follows: Inhibition of CDK2 by flash plate based radioactive enzyme assay.
The nature of test [3]: Inhibition of PKA by flash plate based radioactive enzyme assay.
Test [4] deals with Serine/threonine-protein kinase PLK1 (Homo sapiens, UniProt P53350). Description: Inhibition of PLK1 by flash plate based radioactive enzyme assay.
Chain of Serine/threonine-protein kinase PLK1 (P53350 whole entry): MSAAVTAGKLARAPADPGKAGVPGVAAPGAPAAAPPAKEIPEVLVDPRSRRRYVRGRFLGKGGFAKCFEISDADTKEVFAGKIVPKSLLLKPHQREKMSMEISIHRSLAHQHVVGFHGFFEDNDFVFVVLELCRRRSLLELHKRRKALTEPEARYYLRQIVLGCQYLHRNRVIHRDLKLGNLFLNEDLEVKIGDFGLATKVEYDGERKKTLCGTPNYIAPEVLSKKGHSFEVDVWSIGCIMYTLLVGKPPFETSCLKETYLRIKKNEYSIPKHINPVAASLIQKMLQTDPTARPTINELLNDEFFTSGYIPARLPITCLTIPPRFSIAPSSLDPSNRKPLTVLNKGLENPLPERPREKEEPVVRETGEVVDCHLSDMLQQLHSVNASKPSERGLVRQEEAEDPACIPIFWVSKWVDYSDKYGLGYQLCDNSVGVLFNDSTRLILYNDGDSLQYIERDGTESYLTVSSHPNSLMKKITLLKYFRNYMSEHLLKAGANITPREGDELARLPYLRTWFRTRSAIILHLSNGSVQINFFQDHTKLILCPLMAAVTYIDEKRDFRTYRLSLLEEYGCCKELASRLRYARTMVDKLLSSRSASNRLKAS
The test system of the next test is CAL-27. The test is described as follows: Cytotoxicity against human CAL27 cells overexpressing EGFR by resazurin dye reduction assay.
In a further test the test system is A549. The test is described as follows: Cytotoxicity against human A549 cells overexpressing HDAC by resazurin dye reduction assay.
In test [5] the target is Tyrosine-protein kinase ABL1 (Homo sapiens, UniProt P00519). Description: Inhibition of ABL1 by flash plate based radioactive enzyme assay.
Chain of Tyrosine-protein kinase ABL1 (P00519 whole entry): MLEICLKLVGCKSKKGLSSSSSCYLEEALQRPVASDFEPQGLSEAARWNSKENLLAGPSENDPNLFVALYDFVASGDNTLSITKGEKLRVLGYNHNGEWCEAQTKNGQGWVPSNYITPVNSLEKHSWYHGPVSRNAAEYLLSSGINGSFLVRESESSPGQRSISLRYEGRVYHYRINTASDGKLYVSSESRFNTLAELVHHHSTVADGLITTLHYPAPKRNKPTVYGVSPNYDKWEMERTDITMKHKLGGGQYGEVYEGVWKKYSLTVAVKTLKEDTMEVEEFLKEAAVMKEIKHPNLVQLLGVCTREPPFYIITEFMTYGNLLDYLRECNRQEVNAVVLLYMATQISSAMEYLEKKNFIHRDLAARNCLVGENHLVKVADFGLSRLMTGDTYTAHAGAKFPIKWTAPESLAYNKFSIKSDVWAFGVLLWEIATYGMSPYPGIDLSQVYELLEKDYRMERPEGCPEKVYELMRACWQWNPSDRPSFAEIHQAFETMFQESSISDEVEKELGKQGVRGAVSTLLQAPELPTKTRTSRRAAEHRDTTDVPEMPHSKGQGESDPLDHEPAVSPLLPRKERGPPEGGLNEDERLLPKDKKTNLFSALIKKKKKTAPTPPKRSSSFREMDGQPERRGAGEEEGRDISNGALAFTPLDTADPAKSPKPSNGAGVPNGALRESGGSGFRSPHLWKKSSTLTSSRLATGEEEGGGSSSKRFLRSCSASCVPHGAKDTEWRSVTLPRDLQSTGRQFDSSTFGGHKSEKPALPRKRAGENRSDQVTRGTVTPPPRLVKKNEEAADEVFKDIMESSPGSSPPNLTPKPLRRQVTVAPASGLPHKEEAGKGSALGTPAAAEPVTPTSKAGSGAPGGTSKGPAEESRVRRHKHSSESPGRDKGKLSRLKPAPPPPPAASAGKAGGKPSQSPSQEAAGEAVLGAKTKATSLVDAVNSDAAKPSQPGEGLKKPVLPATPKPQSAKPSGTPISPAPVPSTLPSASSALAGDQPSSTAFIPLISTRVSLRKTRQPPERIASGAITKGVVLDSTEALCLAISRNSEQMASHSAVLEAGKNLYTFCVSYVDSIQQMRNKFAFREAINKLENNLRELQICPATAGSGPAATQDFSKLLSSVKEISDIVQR
The target in test [6] is T1, Epidermal growth factor receptor (Homo sapiens, UniProt P00533). The test is described as follows: Inhibition of EGFR by flash plate based radioactive enzyme assay.
T1 sequence (P00533 whole entry): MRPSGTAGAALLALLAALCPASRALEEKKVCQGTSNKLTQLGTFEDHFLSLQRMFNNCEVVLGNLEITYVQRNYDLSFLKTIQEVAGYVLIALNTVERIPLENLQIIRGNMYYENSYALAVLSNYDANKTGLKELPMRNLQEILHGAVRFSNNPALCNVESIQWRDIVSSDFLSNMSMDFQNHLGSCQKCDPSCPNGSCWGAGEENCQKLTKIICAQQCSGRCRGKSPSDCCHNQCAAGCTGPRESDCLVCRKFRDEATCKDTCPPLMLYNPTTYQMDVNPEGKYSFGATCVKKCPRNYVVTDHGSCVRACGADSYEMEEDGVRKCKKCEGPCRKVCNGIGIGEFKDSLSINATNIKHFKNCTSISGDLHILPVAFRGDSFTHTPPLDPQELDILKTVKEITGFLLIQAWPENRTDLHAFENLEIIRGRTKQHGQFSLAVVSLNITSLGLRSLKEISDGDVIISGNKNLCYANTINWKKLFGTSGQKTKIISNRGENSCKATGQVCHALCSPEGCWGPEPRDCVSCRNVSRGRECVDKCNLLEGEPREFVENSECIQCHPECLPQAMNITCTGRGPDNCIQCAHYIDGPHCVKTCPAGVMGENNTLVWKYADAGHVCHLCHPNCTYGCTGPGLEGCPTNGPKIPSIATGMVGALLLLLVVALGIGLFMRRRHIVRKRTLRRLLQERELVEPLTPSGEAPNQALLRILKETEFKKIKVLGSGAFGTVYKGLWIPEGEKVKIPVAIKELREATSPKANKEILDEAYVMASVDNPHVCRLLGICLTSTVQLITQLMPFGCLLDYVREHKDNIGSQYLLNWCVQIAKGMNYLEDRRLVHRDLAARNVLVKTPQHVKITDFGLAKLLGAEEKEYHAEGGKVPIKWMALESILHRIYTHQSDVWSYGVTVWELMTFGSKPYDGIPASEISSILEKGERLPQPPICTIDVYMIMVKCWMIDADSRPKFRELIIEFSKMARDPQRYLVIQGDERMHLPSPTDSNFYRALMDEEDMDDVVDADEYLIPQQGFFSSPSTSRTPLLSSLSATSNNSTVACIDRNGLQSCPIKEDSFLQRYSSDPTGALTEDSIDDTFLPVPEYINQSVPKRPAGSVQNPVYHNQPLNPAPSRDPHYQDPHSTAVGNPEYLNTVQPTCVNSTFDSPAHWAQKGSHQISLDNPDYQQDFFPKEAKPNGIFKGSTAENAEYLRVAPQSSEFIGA
Test [7] concerns the target Receptor tyrosine-protein kinase erbB-2 (Homo sapiens, UniProt P04626). The test is described as follows: Inhibition of HER2 by flash plate based radioactive enzyme assay.
The test system of another test is SK-OV-3. Description: Cytotoxicity against human SKOV3 cells overexpressing HER2 by resazurin dye reduction assay. It counts as functional, cell-based. For orientation: Alamar Blue is a resazurin reagent that responds to reducing activity.
Test [8] addresses Protein deacetylase HDAC6 (Homo sapiens) (UniProt Q9UBN7). Description: (§1) Inhibition of human recombinant HDAC6 expressed in HEK293 cells. It counts as cell-based.
For another test, the system named is A-431. The test is described as follows: Cytotoxicity against human A431 cells overexpressing EGFR by resazurin dye reduction assay.
Another test concerns the target T2, Histone deacetylase 8 (Homo sapiens, UniProt Q9BY41).
T2 sequence (Q9BY41 whole entry): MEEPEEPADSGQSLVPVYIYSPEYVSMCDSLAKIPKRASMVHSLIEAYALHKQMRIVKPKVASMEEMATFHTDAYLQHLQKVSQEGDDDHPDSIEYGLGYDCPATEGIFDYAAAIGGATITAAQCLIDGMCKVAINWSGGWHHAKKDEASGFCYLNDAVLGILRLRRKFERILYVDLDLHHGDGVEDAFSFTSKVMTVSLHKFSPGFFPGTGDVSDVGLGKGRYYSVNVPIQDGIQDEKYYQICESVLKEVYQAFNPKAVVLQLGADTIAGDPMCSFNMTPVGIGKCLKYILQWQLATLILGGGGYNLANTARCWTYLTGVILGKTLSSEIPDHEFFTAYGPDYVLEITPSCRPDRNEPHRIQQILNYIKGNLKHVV
The test is described as follows: Inhibition of Flag tagged human recombinant HDAC8 expressed in Sf21 cells.

Test [9] deals with Platelet-derived growth factor receptor beta (Homo sapiens, UniProt P09619). The test is described as follows: Inhibition of PDGFRbeta by flash plate based radioactive enzyme assay.
In another test the target is Histone deacetylase 1 (Homo sapiens, UniProt Q13547). The test is described as follows: Inhibition of human recombinant HDAC1 expressed in HEK293 cells. It counts as cell-based.
The target of a further test is Histone deacetylase 3 (Homo sapiens, UniProt O15379). The test is described as follows: Inhibition of Flag tagged human recombinant HDAC3 expressed in Sf21 cells coexpressing SMRT DAD domain.
Chain of Histone deacetylase 3 (O15379 whole entry, the tested form may be a part): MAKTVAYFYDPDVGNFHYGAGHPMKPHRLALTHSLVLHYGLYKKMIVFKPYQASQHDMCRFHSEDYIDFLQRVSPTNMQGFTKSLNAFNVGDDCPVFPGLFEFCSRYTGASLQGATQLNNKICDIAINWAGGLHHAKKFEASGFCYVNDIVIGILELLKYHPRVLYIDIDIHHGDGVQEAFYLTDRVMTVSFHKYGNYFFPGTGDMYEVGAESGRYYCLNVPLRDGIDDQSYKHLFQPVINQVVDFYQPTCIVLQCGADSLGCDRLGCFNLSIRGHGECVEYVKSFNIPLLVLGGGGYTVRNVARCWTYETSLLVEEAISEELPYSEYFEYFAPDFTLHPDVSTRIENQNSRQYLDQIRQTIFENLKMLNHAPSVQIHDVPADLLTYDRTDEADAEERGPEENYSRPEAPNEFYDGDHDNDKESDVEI
For the next test, the system named is SK-BR-3. Description: Cytotoxicity against human SKBR3 cells overexpressing HER2 by resazurin dye reduction assay.
For test [10], the target named is T3, Protein deacetylase HDAC6 (Homo sapiens, UniProt Q9UBN7).
T3 sequence (Q9UBN7 whole entry): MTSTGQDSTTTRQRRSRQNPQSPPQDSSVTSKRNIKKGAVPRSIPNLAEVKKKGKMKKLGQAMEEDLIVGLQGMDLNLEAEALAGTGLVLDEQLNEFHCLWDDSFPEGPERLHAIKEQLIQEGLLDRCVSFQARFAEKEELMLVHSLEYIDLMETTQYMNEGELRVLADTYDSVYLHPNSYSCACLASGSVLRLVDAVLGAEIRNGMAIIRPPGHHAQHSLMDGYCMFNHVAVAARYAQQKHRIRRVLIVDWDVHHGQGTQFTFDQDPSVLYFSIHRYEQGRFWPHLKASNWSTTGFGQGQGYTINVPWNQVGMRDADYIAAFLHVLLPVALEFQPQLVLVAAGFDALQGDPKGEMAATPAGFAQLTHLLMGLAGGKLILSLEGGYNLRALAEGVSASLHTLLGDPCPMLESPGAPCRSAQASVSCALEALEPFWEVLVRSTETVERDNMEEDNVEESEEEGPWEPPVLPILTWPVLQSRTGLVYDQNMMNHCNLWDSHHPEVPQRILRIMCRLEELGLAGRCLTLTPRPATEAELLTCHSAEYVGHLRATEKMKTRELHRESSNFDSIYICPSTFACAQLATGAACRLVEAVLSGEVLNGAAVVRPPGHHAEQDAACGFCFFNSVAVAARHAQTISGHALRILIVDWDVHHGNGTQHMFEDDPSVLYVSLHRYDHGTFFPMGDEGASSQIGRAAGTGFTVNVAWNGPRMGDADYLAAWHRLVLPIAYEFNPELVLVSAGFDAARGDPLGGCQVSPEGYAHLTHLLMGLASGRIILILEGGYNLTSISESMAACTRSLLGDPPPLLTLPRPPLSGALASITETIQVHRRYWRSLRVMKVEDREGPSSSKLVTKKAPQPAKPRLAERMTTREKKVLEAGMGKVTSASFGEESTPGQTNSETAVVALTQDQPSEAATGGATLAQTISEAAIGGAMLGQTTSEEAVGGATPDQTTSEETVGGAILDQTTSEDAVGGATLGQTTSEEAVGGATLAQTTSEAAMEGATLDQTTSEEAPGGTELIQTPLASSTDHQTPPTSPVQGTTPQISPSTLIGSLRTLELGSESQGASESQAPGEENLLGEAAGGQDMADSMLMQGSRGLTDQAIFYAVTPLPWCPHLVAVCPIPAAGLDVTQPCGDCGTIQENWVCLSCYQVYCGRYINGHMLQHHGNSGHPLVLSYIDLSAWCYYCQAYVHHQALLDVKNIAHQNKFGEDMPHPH
The description is as §1. It counts as cell-based.

The next test addresses Histone deacetylase. Description: Inhibition of HDAC in human HeLa cell nuclear extracts. It counts as cell-based.
Another test concerns HeLa. The test is described as follows: Cytotoxicity against human HeLa cells overexpressing HDAC by resazurin dye reduction assay.
Test [11] has as its target Histone deacetylase (Homo sapiens) (UniProt Q13547+O15379+Q9UBN7+Q92769+Q9UQL6+Q8WUI4+Q9BY41+Q96DB2+P56524+Q9UKV0+Q969S8). The following applies: CAL-27, 1 uM.
Description: Inhibition of HADC in human CAL27 cells overexpressing EGFR assessed as effect on histone H2 acetylation at 1 uM after 16 hrs by Western blot
For test [12], the target named is T1, Epidermal growth factor receptor. The test is described as follows: Inhibition of EGF-induced EGFR phosphorylation in human CAL27 cells overexpressing EGFR after 16 hrs by Western blot. It is filed as cell-based, CAL-27. A general note: In western blotting, separated proteins are transferred to a membrane and probed.

For the compound `O=C(/C=C/c1ccc(-c2ccc3ncnc(Nc4ccc(OCc5cccc(F)c5)c(Cl)c4)c3c2)s1)NO`, the IC50 at Insulin receptor was found to be 1900 nM; in test [2], 440 nM; in test [3], 35000 nM; in test [4] it was 2700 nM; in the test with CAL-27 it was 660 nM; with A549 it was 2600 nM. Further, the IC50 came to 2700 nM in [5]; 4.8 nM in [6]; 3.5 nM in test [7]; 4000 nM in the test on SK-OV-3; 730 nM with A-431. Besides, in test [1], the EC50 is > 100000 nM. For the same compound, the maximal response (Emax) in test [8] is 70%.

Turning to `Nc1ccccc1NC(=O)c1ccc(-c2ccc3ncnc(Nc4ccc(OCc5cccc(F)c5)c(Cl)c4)c3c2)s1`, the IC50 is 2500 nM on Insulin receptor; > 32000 nM on Histone deacetylase 8; 2300 nM in [9]; 2100 nM in [2]; > 100000 nM in [3]; > 50000 nM on Histone deacetylase 1. The IC50 in [4] came to 5600 nM; with CAL-27, 710 nM; in the test on A549, 9100 nM; in test [5], 6000 nM; in test [6], 2.8 nM; in [7], 4.9 nM. For the same compound, the IC50 at Histone deacetylase 3 was > 32000 nM; with SK-OV-3, 3900 nM; in the test with SK-BR-3 it was 620 nM; in [10], > 10000 nM; on Histone deacetylase, > 10000 nM; in the test on HeLa, 3700 nM. For the same compound, the half-maximal inhibitory concentration (IC50) in the test on A-431 amounted to 2400 nM. The EC50 in test [1] was > 100000 nM.

Consider `O=C(/C=C/c1cccc(-c2ccc3ncnc(Nc4ccc(OCc5cccc(F)c5)c(Cl)c4)c3c2)c1)NO`, for which the IC50 is 3600 nM at Insulin receptor; 630 nM on Histone deacetylase 8; 2500 nM in [9]; 920 nM in [2]; > 100000 nM in [3]; 35 nM at Histone deacetylase 1. The IC50 in test [4] was determined as 6800 nM; in the test on CAL-27, 590 nM; in the test on A549, 1200 nM; in [5], 5300 nM; in test [6], 18 nM; in test [7] it was 11 nM. In addition, the IC50 at Histone deacetylase 3 was 66 nM; in the test on SK-OV-3, 1000 nM; in the test on SK-BR-3 it was 350 nM; in [10], 86 nM; against Histone deacetylase it was 47 nM; with HeLa it was 970 nM. For the same compound, the IC50 is 720 nM in the test on A-431 and 500 nM in [12]. For the same compound, the EC50 in test [1] was found to be 4700 nM. For the same compound, the inhibition entry in test [11] was “Active”.

Consider `Nc1ccccc1NC(=O)/C=C/c1ccc(-c2ccc3ncnc(Nc4ccc(OCc5cccc(F)c5)c(Cl)c4)c3c2)cc1`, for which the IC50 is 3000 nM on Insulin receptor; > 32000 nM at Histone deacetylase 8; 2700 nM in test [9]; 1200 nM in test [2]; > 100000 nM in test [3]; > 100000 nM on Histone deacetylase 1. Further, the IC50 in [4] is 6200 nM; with CAL-27 it was 4000 nM; in the test with A549 it was 15000 nM; in test [5], 4900 nM; in test [6], 29 nM; in test [7] it was 15 nM. Besides, the IC50 at Histone deacetylase 3 was > 32000 nM; in the test on SK-OV-3 it was 16000 nM; in the test on SK-BR-3, 17000 nM; in test [10], > 32000 nM; on Histone deacetylase it was > 32000 nM; with HeLa, 3100 nM. In addition, in the test on A-431, the IC50 was 3600 nM. Also, in test [1], the EC50 was > 100000 nM.

Regarding `O=C(/C=C/c1ccc(-c2ccc3ncnc(Nc4ccc(OCc5cccc(F)c5)c(Cl)c4)c3c2)o1)NO`, the IC50 was 7340 nM at Insulin receptor; 11000 nM at Histone deacetylase 8; 3300 nM in [9]; 440 nM in [2]; 120000 nM in test [3]; 610 nM at Histone deacetylase 1. Moreover, the IC50 in [4] is 12000 nM; with CAL-27 it was 820 nM; with A549, 3900 nM; in test [5], 7700 nM; in test [6], 2.5 nM; in test [7] it was 4.1 nM. For the same compound, the IC50 was found to be 6300 nM at Histone deacetylase 3; 2100 nM with SK-OV-3; 510 nM in the test with SK-BR-3; 230 nM in test [10]; 630 nM against Histone deacetylase; 3200 nM with HeLa. The IC50 is 1900 nM with A-431 and < 32 nM in test [12]. Moreover, in test [1], the EC50 came out at 3650 nM.
